The target of data set [1] is T1, Cholinesterase (Homo sapiens, UniProt P06276). The data set is described as follows: Inhibition of human BChE using butyrylthiocholine iodide as substrate incubated for 20 mins followed by substrate addition by Ellman's method. For orientation: In Ellman's method for cholinesterases, released thiocholine reacts with DTNB.
For data set [2], the target named is Acetylcholinesterase (Homo sapiens) (UniProt P22303). The data set is described as follows: Inhibition of human AChE using acetylthiocholine iodide as substrate at 10 uM incubated for 20 mins followed by substrate addition by Ellman's method relative to control.
Acetylcholinesterase (Homo sapiens), sequence (P22303 whole entry): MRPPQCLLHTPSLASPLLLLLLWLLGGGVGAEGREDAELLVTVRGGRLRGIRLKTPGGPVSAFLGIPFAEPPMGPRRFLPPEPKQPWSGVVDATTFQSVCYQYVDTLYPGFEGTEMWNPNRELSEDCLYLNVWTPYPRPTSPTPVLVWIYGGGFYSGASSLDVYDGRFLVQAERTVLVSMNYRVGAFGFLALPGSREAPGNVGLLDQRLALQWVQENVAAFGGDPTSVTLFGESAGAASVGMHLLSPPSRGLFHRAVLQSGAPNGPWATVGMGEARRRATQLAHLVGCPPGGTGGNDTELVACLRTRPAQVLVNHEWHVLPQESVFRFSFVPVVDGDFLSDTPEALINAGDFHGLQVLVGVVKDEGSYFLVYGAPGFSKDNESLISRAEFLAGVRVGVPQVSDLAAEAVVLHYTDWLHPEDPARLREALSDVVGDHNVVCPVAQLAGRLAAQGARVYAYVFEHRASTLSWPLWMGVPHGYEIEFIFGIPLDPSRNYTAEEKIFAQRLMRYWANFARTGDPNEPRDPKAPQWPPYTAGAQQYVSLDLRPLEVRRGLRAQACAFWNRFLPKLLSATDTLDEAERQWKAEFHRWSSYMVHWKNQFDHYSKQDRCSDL
The subject of data set [3] is N9. As to the kind of experiment: Immunomodulatory activity in mouse N9 microglial cells assessed as reduction in LPS-induced nitrite accumulation at 2.5 to 5 uM incubated for 24 hrs by Griess reagent based colorimetry assay. The format is functional, cell-based. As to conditions: dose 2.5-5 µM. (In general: Griess reagent forms a coloured azo dye with nitrite.)
Data set [4] in a line: Metal chelating activity assessed as Fe2+ -ferrozoine complex formation at ratio of 10:1 incubated for 2 mins followed by ferrozine addition and further incubated for 10 mins by absorbance based assay. Particulars: time 12.0 min.
A short description of data set [5]: Metal chelating activity assessed as compound-Cu2+ complex formation at ratio of 10:1 incubated for 2 mins followed by pyrocatechol violet addition and further incubated for 10 mins in dark by absorbance based assay. As to conditions: time 12.0 min.
The test system of data set [6] is N9. The data set is described as follows: Immunomodulatory activity in mouse N9 microglial cells assessed as reduction in LPS-induced IL-1beta release at 2.5 to 5 uM incubated for 24 hrs by Western blot analysis. The format is functional, cell-based. Particulars: dose 2.5-5 µM. On the technique in general: In western blotting, separated proteins are transferred to a membrane and probed.

Data set [7] can be described thus: Neurotoxicity in mouse HT-22 cells assessed as reduction in cell viability at 25 uM incubated for 24 hrs by MTT assay. The format is cell-based. As to conditions: ht-22, 24 h.
The test system of data set [8] is HT-22. The data set is described as follows: Neuroprotective activity against glutamate induced-oxidative stress in mouse HT-22 cells assessed as cell viability at 1 to 25 uM incubated for 24 hrs by MTT assay. The format is functional, cell-based. As to conditions: dose 1-25 µM.
For data set [9], the system named is N9. As to the kind of experiment: Immunomodulatory activity in mouse N9 microglial cells assessed as reduction in LPS-induced iNOS expression at 2.5 to 5 uM incubated for 24 hrs by Western blot analysis. The format is functional, cell-based. Particulars: dose 2.5-5 µM.
Data set [10] relates to N9. As to the kind of experiment: Immunomodulatory activity in mouse N9 microglial cells assessed as reduction in LPS-induced nitrite accumulation at 0.1 to 5 uM incubated for 24 hrs by Griess reagent based colorimetry assay. The format is functional, cell-based. Particulars: dose 0.1-5 µM.
Data set [11] deals with N9. As to the kind of experiment: Immunomodulatory activity in mouse N9 microglial cells assessed as reduction in LPS-induced IL-1beta release at 0.1 to 5 uM incubated for 24 hrs by Western blot analysis. The format is functional, cell-based. As to conditions: dose 0.1-5 µM.
Data set [12] deals with T1, Cholinesterase.
Description: Binding affinity to human serum BChE assessed as half life
The test system of data set [13] is Mus musculus. As to the kind of experiment: Anti-alzheimer activity against amyloid beta 25-35 induced learning impairments in Swiss mouse assessed as latency to enter dark compartment at 0.3 mg/kg, ip administered once daily for 7 days and measured on day 8 by passive avoidance test. The format is functional, organism-based. Particulars: time 7.0 day.
Data set [14] can be described thus: Toxicity in Swiss mouse assessed as change in weight gain at 0.1 to 3 mg/kg, ip administered for 7 days. The format is organism-based. As to conditions: in vivo, 168 h, dose 0.1-3 mg/kg, time 7 day.
Data set [15] is described as follows: Toxicity in Swiss mouse assessed as change in normal behaviour at 0.1 to 3 mg/kg, ip administered for 7 days. Particulars: in vivo, 168 h, dose 0.1-3 mg/kg, time 7 day. The format is organism-based.
For data set [16], the system named is N9. As to the kind of experiment: Immunomodulatory activity in mouse N9 microglial cells assessed as increase in LPS-induced TREM2 expression at 2.5 to 5 uM incubated for 24 hrs by Western blot analysis. The format is functional, cell-based. As to conditions: dose 2.5-5 µM.
Data set [17] concerns N9. The data set is described as follows: Immunomodulatory activity in mouse N9 microglial cells assessed as reduction in LPS-induced iNOS expression at 0.1 to 5 uM incubated for 24 hrs by Western blot analysis. The format is functional, cell-based. As to conditions: dose 0.1-5 µM.
Data set [18] has as its system HT-22. The data set is described as follows: Neuroprotective activity against glutamate induced-oxidative stress in mouse HT-22 cells assessed as cell viability at 10 uM incubated for 24 hrs by MTT assay. The format is functional, cell-based.
In data set [19] the test system is Mus musculus. As to the kind of experiment: Anti-alzheimer activity against amyloid beta 25-35 induced learning impairments in Swiss mouse assessed as increase in spontaneous alteration performance by measuring total number of arm entries at 1 mg/kg, ip administered once daily for 7 days and measured on day 8 by Y-maze test. The format is functional, organism-based. Particulars: time 7.0 day.

Data set [20] deals with Mus musculus. As to the kind of experiment: Anti-alzheimer activity against amyloid beta 25-35 induced learning impairments in wild type 129 SV mouse assessed as increase in spontaneous alternation performance by measuring total number of arm entries at 0.3 mg/kg, ip administered once daily for 7 days and measured on day 8 by Y-maze test. The format is functional, organism-based. Particulars: time 7.0 day.

For data set [21], the system named is N9. As to the kind of experiment: Immunomodulatory activity in mouse N9 microglial cells assessed as reduction in LPS-induced IL-1beta release at 0.5 to 5 uM incubated for 24 hrs by Western blot analysis. The format is functional, cell-based. Particulars: dose 0.5-5 µM.
For data set [22], the system named is Mus musculus. As to the kind of experiment: Anti-alzheimer activity against amyloid beta 25-35 induced learning impairments in Swiss mouse assessed as increase in spontaneous alteration performance by measuring total number of arm entries at 0.3 to 1 mg/kg, ip administered once daily for 7 days and measured on day 8 by Y-maze test. The format is functional, organism-based. As to conditions: dose 0.3-1 mg/kg, time 7.0 day.

Data set [23] relates to Mus musculus. As to the kind of experiment: Anti-alzheimer activity against amyloid beta 25-35 induced learning impairments in Swiss mouse assessed as latency to enter dark compartment at 0.1 mg/kg, ip administered once daily for 7 days and measured on day 8 by passive avoidance test. The format is functional, organism-based. Particulars: time 7.0 day.
Data set [24] concerns Mus musculus. The data set is described as follows: Anti-alzheimer activity against amyloid beta 25-35 induced learning impairments in BChE KO mouse assessed as memory deficit in alternation performance by measuring total number of arm entries at 0.3 mg/kg, ip qd administered for 7 days and measured on day 8 by Y-maze test. The format is functional, organism-based. As to conditions: time 7.0 day.

For data set [25], the system named is Mus musculus. As to the kind of experiment: Anti-alzheimer activity against amyloid beta 25-35 induced learning impairments in wild type 129 SV mouse assessed as increase in latency to enter dark compartment at 0.3 mg/kg, ip administered once daily for 7 days and measured on day 9 by passive avoidance test. The format is functional, organism-based. As to conditions: time 7.0 day.

Data set [26] deals with HT-22. As to the kind of experiment: Neuroprotective activity against glutamate induced-oxidative stress in mouse HT-22 cells assessed as cell viability at 5 uM incubated for 24 hrs by MTT assay. The format is functional, cell-based.
Data set [27] relates to Mus musculus. As to the kind of experiment: Anti-alzheimer activity against amyloid beta 25-35 induced learning impairments in BChE KO mouse assessed as increase in latency to enter dark compartment at 0.3 mg/kg, ip administered once daily for 7 days and measured on day 9 by passive avoidance test. The format is functional, organism-based. As to conditions: time 7.0 day.

The source made the active and inactive calls. The calls are words filed in the database; no cut-off is given here.

T1 sequence (P06276 whole entry): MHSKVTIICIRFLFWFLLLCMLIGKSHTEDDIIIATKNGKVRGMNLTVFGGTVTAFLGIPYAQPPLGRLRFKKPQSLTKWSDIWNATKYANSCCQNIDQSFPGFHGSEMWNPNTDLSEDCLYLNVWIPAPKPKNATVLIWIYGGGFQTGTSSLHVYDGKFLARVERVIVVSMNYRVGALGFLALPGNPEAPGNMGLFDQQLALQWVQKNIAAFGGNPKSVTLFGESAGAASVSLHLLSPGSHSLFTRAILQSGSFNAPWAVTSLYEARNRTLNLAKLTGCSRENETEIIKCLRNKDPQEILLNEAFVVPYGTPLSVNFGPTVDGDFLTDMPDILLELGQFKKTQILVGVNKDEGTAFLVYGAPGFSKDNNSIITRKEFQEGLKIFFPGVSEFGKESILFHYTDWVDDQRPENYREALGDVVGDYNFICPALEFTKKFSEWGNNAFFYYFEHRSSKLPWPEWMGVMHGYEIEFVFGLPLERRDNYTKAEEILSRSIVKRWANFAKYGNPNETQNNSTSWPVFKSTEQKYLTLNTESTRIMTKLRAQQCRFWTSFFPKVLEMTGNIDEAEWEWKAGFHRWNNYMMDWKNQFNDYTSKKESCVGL

In general, inhibition refers to the percentage by which the read-out fell short of the control. For `COc1ccc2[nH]cc(CCNC(=O)CCCCNC(=O)Oc3ccc4c(c3)CN3CCc5ccccc5C3N4C)c2c1` (stereo not given), at Cholinesterase [1] (read-out: IC50), the IC50 was 127 nM. Also, the inhibition in data set [2] is 15%.
Take `CN1c2ccc(OC(=O)NCCCCCCNC(=O)/C=C/c3ccccc3)cc2CN2CCc3ccccc3C21` (stereo not given): at Cholinesterase [1] (read-out: IC50), the IC50 came to 442 nM. The same molecule gave an inhibition in data set [2] of 37.5%.
`COc1ccc2[nH]cc(CCNC(C)=O)c2c1` [MELATONIN]: the outcome (in the data set with N9 [3]; in data set [4]; in data set [5]; with N9 [6]; in the data set on HT-22 [8]; in the data set with N9 [9]) was inactive. The Activity result in [7] was “Non-Toxic”.
With `CN1c2ccc(OC(=O)NCCCCNC(=O)/C=C/c3ccccc3)cc2CN2CCc3ccccc3C21` (stereo not given), on Cholinesterase [1] (read-out: IC50), the IC50 was 221 nM. In addition, the inhibition in data set [2] was 6.1%.
Consider `COc1cc(/C=C/C(=O)O)ccc1O` [FERULATE], for which the result (in the data set with N9 [3]; in data set [4]; in [5]; with N9 [6]; in the data set on HT-22 [8]; with N9 [9]) was inactive. Further, the Activity result in data set [7] is on record as “Non-Toxic”.
Consider `COc1cc(/C=C/C(=O)NCCCCCCNC(=O)Oc2ccc3c(c2)CN2CCc4ccccc4C2N3C)ccc1O` (stereo not given), for which the IC50 on Cholinesterase [1] (read-out: IC50) was determined as 166 nM. Further, in data set [2], the inhibition amounted to 20%.
As to `COc1ccc2[nH]cc(CCNC(=O)CCNC(=O)Oc3ccc4c(c3)CN3CCc5ccccc5C3N4C)c2c1` (stereo not given), the IC50 at Cholinesterase [1] (read-out: IC50) was 482 nM. The molecule also had an inhibition in [2] of 2.3%.
Turning to `Cc1c(C)c2c(c(C)c1O)CCC(C)(C(=O)NCCCCCCNC(=O)Oc1ccc3c(c1)CN1CCc4ccccc4C1N3C)O2` (stereo not given), the IC50 at Cholinesterase [1] (read-out: IC50) is 255 nM; at Cholinesterase [1] (read-out: pIC50 (converted)) it was 9330 nM. Moreover, the inhibition in [2] amounted to 24.1%.
`COc1cc(/C=C/C(=O)NCCCCNC(=O)Oc2ccc3c(c2)CN2CCc4ccccc4C2N3C)ccc1O` (stereo not given): the IC50 at Cholinesterase [1] (read-out: IC50) was 155 nM; on Cholinesterase [1] (read-out: pIC50 (converted)), 115 nM. For the same molecule, the result in the data set with N9 [10], in the data set with N9 [11], in the data set with Mus musculus [13], in the data set with N9 [16], in the data set on N9 [17] and with HT-22 [18] was Active. Moreover, the result in the data set on Mus musculus [19] was Active. The T1/2 on Cholinesterase [12] was found to be 2.4 h. In addition, the outcome in [4] and in data set [5] was inactive. The Activity result in [7], in [14] and in data set [15] was “Non-Toxic” in each case. This molecule yielded an inhibition in [2] of 7.7%.
Turning to `COc1ccc2[nH]cc(CCNC(=O)CCCCCCNC(=O)Oc3ccc4c(c3)CN3CCc5ccccc5C3N4C)c2c1` (stereo not given), the IC50 at Cholinesterase [1] (read-out: IC50) is 102 nM; on Cholinesterase [1] (read-out: pIC50 (converted)), 204 nM. The result in the data set on N9 [10], in the data set with Mus musculus [20], in the data set with N9 [21], in the data set on Mus musculus [22], in the data set with Mus musculus [23] and in the data set on Mus musculus [25] was Active. Besides, the outcome in the data set with N9 [16], with N9 [17] and in the data set with HT-22 [26] was Active. On Cholinesterase [12], this molecule had a T1/2 of 3 h. Moreover, the outcome (in data set [4]; in data set [5]; in the data set with Mus musculus [24]; with Mus musculus [27]) was inactive. Also, the Activity entry in [7], in [14] and in data set [15] was “Non-Toxic” in each case. The inhibition in [2] turned out to be 6.5%.
In the case of `Cc1c(C)c2c(c(C)c1O)CCC(C)(C(=O)NCCCCNC(=O)Oc1ccc3c(c1)CN1CCc4ccccc4C1N3C)O2` (stereo not given), the IC50 on Cholinesterase [1] (read-out: IC50) came out at 791 nM. The inhibition in data set [2] turned out to be 15.2%.

The values are drawn from ChEMBL document CHEMBL5032507, “Selective Pseudo-irreversible Butyrylcholinesterase Inhibitors Transferring Antioxidant Moieties to the Enzyme Show Pronounced Neuroprotective Efficacy In Vitro and In Vivo in an Alzheimer's Disease Mouse Model” (J Med Chem, 2021).
